Data: patent publication US20060069132A1, “Azolecarboxamide herbicides” (priority 2004, published 2006)

What was measured:
barnyardgrass [1] = assay: Test B pre-/postemergence herbicide test; assay type: in vivo, Echinochloa crus-galli; conditions: for Barnyardgrass plant response rating (0 to 100 scale) / Plant response rating, Barnyardgrass: 0 = no effect, 100 = complete control, preemergence; for Plant response rating, Barnyardgrass / Barnyardgrass plant response rating: visual rating; for Barnyardgrass plant response rating: postemergence, scale 0 (no effect) to 100 (complete control)
Method in brief: (§1)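 Seeds were planted and treated preemergence with compounds formulated in a non-phytotoxic solvent mixture containing surfactant, while plants at the 1- to 4-leaf stage (2 to 18 cm) received postemergence sprays. Flooded paddy plants were grown to the 2-leaf stage. After 13 to 15 days in a greenhouse, injury was visually rated 0–100 against untreated controls.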

barnyardgrass [2] = assay: Test B flooded paddy test; assay type: in vivo, Echinochloa crus-galli; conditions: 1000 g ai/ha, scale 0 to 100 (0 no effect, 100 complete control)
Method in brief: (§2)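 Postemergence plants were sprayed with formulated test chemicals at 2 to 18 cm height (1- to 4-leaf stage); paddy species were grown to the 2-leaf stage. After 13 to 15 days in a greenhouse, injury was rated visually against untreated controls on a 0–100 scale (0 = no effect, 100 = complete control).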

wheat = assay: Test B postemergence herbicide test; assay type: in vivo, Triticum aestivum; design: key to Wheat plant response rating: 0 = no effect, 100 = complete control; conditions: postemergence
Method in brief: (§3)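 Read-out: visual comparison with controls, scored 0 to 100, where 100 means complete control and 0 no effect. Formulated chemicals were applied postemergence to plants 2–18 cm tall (1- to 4-leaf), or to flooded-paddy plants at the 2-leaf stage, then held 13 to 15 days under glass.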

pigweed = assay: Test B pre-/postemergence herbicide test; assay type: in vivo, Amaranthus retroflexus; conditions: for Pigweed plant response rating (0 to 100 scale) / Plant response rating, Pigweed: 0 = no effect, 100 = complete control, preemergence; for Pigweed plant response rating: postemergence
Method in brief: (§4)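 Visual rating, 0 (no effect) to 100 (complete control), versus untreated controls after 13–15 d in greenhouse. Pre- and postemergence applications (postemergence plants 2–18 cm, 1–4 leaves); flooded paddy arm at 2-leaf stage. Compounds in non-phytotoxic solvent plus surfactant.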

giant foxtail = assay: Test B pre-/postemergence herbicide test; assay type: in vivo, Setaria faberi; conditions: for Foxtail, Giant plant response rating (0 to 100 scale) / Plant response rating, Foxtail, Giant: 0 = no effect, 100 = complete control, preemergence; for Foxtail, Giant plant response rating: postemergence
Method in brief: as §4

[3] = tested on: small flower umbrella sedge; assay: Test B flooded paddy test; assay type: in vivo, Cyperus difformis; conditions: 1000 g ai/ha, scale 0 to 100 (0 no effect, 100 complete control)
Method in brief: as §2

rice [4] = assay: Test B pre-/postemergence herbicide test; assay type: in vivo, Oryza sativa; conditions: 0 = no effect, 100 = complete control, preemergence; for Rice plant response rating (0 to 100 scale): 125 g ai/ha; for Plant response rating, Rice: 500 g ai/ha, visual rating
Method in brief: as §4

blackgrass = assay: Test B postemergence herbicide test; assay type: in vivo, Alopecurus myosuroides; conditions: postemergence, visual rating, scale 0 (no effect) to 100 (complete control)
Method in brief: as §2

morningglory = assay: Test B pre-/postemergence herbicide test; assay type: in vivo, Ipomoea coccinea; conditions: for Morningglory plant response rating (0 to 100 scale) / Plant response rating, Morningglory: 0 = no effect, 100 = complete control, preemergence; for Morningglory plant response rating: postemergence
Method in brief: as §1

wild oat = assay: Test B postemergence herbicide test; assay type: in vivo, Avena fatua; conditions: postemergence
Method in brief: as §3

rice [5] = assay: Test B flooded paddy test; assay type: in vivo, Oryza sativa; conditions: 1000 g ai/ha, scale 0 to 100 (0 no effect, 100 complete control)
Method in brief: as §3

cocklebur = assay: Test B pre-/postemergence herbicide test; assay type: in vivo, Xanthium strumarium; conditions: for Cocklebur plant response rating (0 to 100 scale) / Plant response rating, Cocklebur: 0 = no effect, 100 = complete control, preemergence; for Plant response rating, Cocklebur / Cocklebur plant response rating: visual rating; for Cocklebur plant response rating: postemergence, scale 0 (no effect) to 100 (complete control)
Method in brief: as §1

corn = assay: Test B pre-/postemergence herbicide test; assay type: in vivo, Zea mays; conditions: for Corn plant response rating (0 to 100 scale) / Plant response rating, Corn: 0 = no effect, 100 = complete control, preemergence; for Corn plant response rating: postemergence
Method in brief: as §4

Surinam grass = assay: Test B pre-/postemergence herbicide test; assay type: in vivo, Urochloa decumbens; conditions: for Surinam Grass plant response rating (0 to 100 scale) / Plant response rating, Surinam Grass: 0 = no effect, 100 = complete control, preemergence; for Surinam Grass plant response rating: postemergence
Method in brief: as §4

velvetleaf = assay: Test B pre-/postemergence herbicide test; assay type: in vivo, Abutilon theophrasti; conditions: for Velvetleaf plant response rating (0 to 100 scale) / Plant response rating, Velvetleaf: 0 = no effect, 100 = complete control, preemergence; for Velvetleaf plant response rating: postemergence
Method in brief: as §4

large crabgrass = assay: Test B pre-/postemergence herbicide test; assay type: in vivo, Digitaria sanguinalis; conditions: for Crabgrass, Large plant response rating (0 to 100 scale) / Plant response rating, Crabgrass, Large: 0 = no effect, 100 = complete control, preemergence; for Crabgrass, Large plant response rating: postemergence
Method in brief: as §4

ducksalad = assay: Test B flooded paddy test; assay type: in vivo, Heteranthera limosa; conditions: 1000 g ai/ha, scale 0 to 100 (0 no effect, 100 complete control)
Method in brief: as §2

lambsquarters = assay: Test B pre-/postemergence herbicide test; assay type: in vivo, Chenopodium album; conditions: for Lambsquarters plant response rating: postemergence
Method in brief: as §4

[6] = 125 g ai/ha, visual rating, scale 0 (no effect) to 100 (complete control)
[7] = 500 g ai/ha, scale 0 to 100, 0 is no effect, 100 is complete control

CCCOC(=O)c1cc(NC(=O)c2cc(C(C)(C)C)nn2CC)c(F)cc1F [Compound 249]
0: Barnyardgrass plant response rating (0 to 100 scale) (barnyardgrass [1]; 125 g ai/ha) | Plant response rating, Barnyardgrass (barnyardgrass [1]; 500 g ai/ha) | Barnyardgrass plant response rating (barnyardgrass [2]) | Pigweed plant response rating (0 to 100 scale) (pigweed; 125 g ai/ha) | Plant response rating, Pigweed (pigweed; 500 g ai/ha, visual rating) | Foxtail, Giant plant response rating (0 to 100 scale) (giant foxtail; 125 g ai/ha) | Plant response rating, Foxtail, Giant (giant foxtail; 500 g ai/ha, visual rating) | Rice plant response rating (0 to 100 scale) (rice [4]) | Plant response rating, Rice (rice [4]) | Morningglory plant response rating (0 to 100 scale) (morningglory; 125 g ai/ha) | Rice plant response rating (rice [5]) | Cocklebur plant response rating (0 to 100 scale) (cocklebur; 125 g ai/ha) | Plant response rating, Cocklebur (cocklebur; 500 g ai/ha) | Corn plant response rating (0 to 100 scale) (corn; 125 g ai/ha) | Plant response rating, Corn (corn; 500 g ai/ha, visual rating) | Surinam Grass plant response rating (0 to 100 scale) (Surinam grass; 125 g ai/ha) | Velvetleaf plant response rating (0 to 100 scale) (velvetleaf; 125 g ai/ha) | Plant response rating, Velvetleaf (velvetleaf; 500 g ai/ha, visual rating) | Crabgrass, Large plant response rating (0 to 100 scale) (large crabgrass; 125 g ai/ha) | Plant response rating, Crabgrass, Large (large crabgrass; 500 g ai/ha, visual rating) | Ducksalad plant response rating (ducksalad) | Lambsquarters plant response rating (0 to 100 scale) (lambsquarters; 125 g ai/ha, 0 = no effect, 100 = complete control, preemergence)
20: Barnyardgrass plant response rating (barnyardgrass [1]; 500 g ai/ha) | Pigweed plant response rating (pigweed; [6]) | Foxtail, Giant plant response rating (giant foxtail; [6]) | Blackgrass plant response rating (blackgrass; 125 g ai/ha) | Morningglory plant response rating (morningglory; [6]) | Corn plant response rating (corn; [7]) | Plant response rating, Surinam Grass (Surinam grass; 500 g ai/ha, visual rating) | Velvetleaf plant response rating (velvetleaf; [7]) | Lambsquarters plant response rating (lambsquarters; [7])
10: Barnyardgrass plant response rating (barnyardgrass [1]; 125 g ai/ha) | Plant response rating, Morningglory (morningglory; 500 g ai/ha, visual rating) | Corn plant response rating (corn; [6]) | Surinam Grass plant response rating (Surinam grass; [6]) | Velvetleaf plant response rating (velvetleaf; [6]) | Crabgrass, Large plant response rating (large crabgrass; [6]) | Lambsquarters plant response rating (lambsquarters; [6])
30: Wheat plant response rating (wheat; [6]) | Wheat plant response rating (wheat; [7]) | Foxtail, Giant plant response rating (giant foxtail; [7]) | Sedge, Umbrella plant response rating [3] | Blackgrass plant response rating (blackgrass; 500 g ai/ha) | Morningglory plant response rating (morningglory; [7]) | Oat, Wild plant response rating (wild oat; [6]) | Cocklebur plant response rating (cocklebur; 125 g ai/ha) | Cocklebur plant response rating (cocklebur; 500 g ai/ha) | Surinam Grass plant response rating (Surinam grass; [7]) | Crabgrass, Large plant response rating (large crabgrass; [7])
80: Pigweed plant response rating (pigweed; [7])
40: Oat, Wild plant response rating (wild oat; [7])

CCN(C)C(=O)c1cc(NC(=O)c2cc(C(C)(C)C)nn2CC)c(F)cc1F [Compound 254]
60: Sedge, Umbrella plant response rating [3]
40: Plant response rating, Barnyardgrass (barnyardgrass [1]; 500 g ai/ha) | Plant response rating, Surinam Grass (Surinam grass; 500 g ai/ha, visual rating)
30: Barnyardgrass plant response rating (barnyardgrass [2]) | Pigweed plant response rating (pigweed; [7]) | Plant response rating, Foxtail, Giant (giant foxtail; 500 g ai/ha, visual rating) | Morningglory plant response rating (morningglory; [7])
100: Plant response rating, Pigweed (pigweed; 500 g ai/ha, visual rating) | Plant response rating, Crabgrass, Large (large crabgrass; 500 g ai/ha, visual rating) | Plant response rating, Lambsquarters (lambsquarters; 500 g ai/ha, visual rating, 0 = no effect, 100 = complete control, preemergence)
80: Rice plant response rating (rice [5])
10: Barnyardgrass plant response rating (barnyardgrass [1]; 500 g ai/ha) | Wheat plant response rating (wheat; [6]) | Pigweed plant response rating (pigweed; [6]) | Blackgrass plant response rating (blackgrass; 500 g ai/ha) | Plant response rating, Morningglory (morningglory; 500 g ai/ha, visual rating) | Corn plant response rating (corn; [7]) | Surinam Grass plant response rating (Surinam grass; [6]) | Surinam Grass plant response rating (Surinam grass; [7]) | Velvetleaf plant response rating (velvetleaf; [6]) | Velvetleaf plant response rating (velvetleaf; [7]) | Crabgrass, Large plant response rating (0 to 100 scale) (large crabgrass; 125 g ai/ha) | Crabgrass, Large plant response rating (large crabgrass; [6]) | Crabgrass, Large plant response rating (large crabgrass; [7]) | Lambsquarters plant response rating (lambsquarters; [6])
20: Wheat plant response rating (wheat; [7]) | Plant response rating, Rice (rice [4]) | Morningglory plant response rating (morningglory; [6]) | Oat, Wild plant response rating (wild oat; [6]) | Oat, Wild plant response rating (wild oat; [7]) | Cocklebur plant response rating (cocklebur; 125 g ai/ha) | Cocklebur plant response rating (cocklebur; 500 g ai/ha) | Plant response rating, Velvetleaf (velvetleaf; 500 g ai/ha, visual rating) | Lambsquarters plant response rating (lambsquarters; [7])
90: Ducksalad plant response rating (ducksalad)
0: Barnyardgrass plant response rating (0 to 100 scale) (barnyardgrass [1]; 125 g ai/ha) | Barnyardgrass plant response rating (barnyardgrass [1]; 125 g ai/ha) | Pigweed plant response rating (0 to 100 scale) (pigweed; 125 g ai/ha) | Foxtail, Giant plant response rating (0 to 100 scale) (giant foxtail; 125 g ai/ha) | Foxtail, Giant plant response rating (giant foxtail; [6]) | Foxtail, Giant plant response rating (giant foxtail; [7]) | Rice plant response rating (0 to 100 scale) (rice [4]) | Blackgrass plant response rating (blackgrass; 125 g ai/ha) | Morningglory plant response rating (0 to 100 scale) (morningglory; 125 g ai/ha) | Cocklebur plant response rating (0 to 100 scale) (cocklebur; 125 g ai/ha) | Plant response rating, Cocklebur (cocklebur; 500 g ai/ha) | Corn plant response rating (0 to 100 scale) (corn; 125 g ai/ha) | Plant response rating, Corn (corn; 500 g ai/ha, visual rating) | Corn plant response rating (corn; [6]) | Surinam Grass plant response rating (0 to 100 scale) (Surinam grass; 125 g ai/ha) | Velvetleaf plant response rating (0 to 100 scale) (velvetleaf; 125 g ai/ha)
